Publication PMC12667995 (bioRxiv, 2025)

How the values were obtained:
[1] = target: T1, ProT3 (Arabidopsis thaliana, UniProt Q9SJP9); assay: 3H-proline uptake and two-electrode voltage clamp, Xenopus laevis oocytes; format: cell-based; settings: uptake: 0.5 uM 3H-L-proline, labelled compound, pH 5.0, 30 min; currents: 5 mM L-proline, pH 5.0, -60 mV
T1 sequence (Q9SJP9 1-436): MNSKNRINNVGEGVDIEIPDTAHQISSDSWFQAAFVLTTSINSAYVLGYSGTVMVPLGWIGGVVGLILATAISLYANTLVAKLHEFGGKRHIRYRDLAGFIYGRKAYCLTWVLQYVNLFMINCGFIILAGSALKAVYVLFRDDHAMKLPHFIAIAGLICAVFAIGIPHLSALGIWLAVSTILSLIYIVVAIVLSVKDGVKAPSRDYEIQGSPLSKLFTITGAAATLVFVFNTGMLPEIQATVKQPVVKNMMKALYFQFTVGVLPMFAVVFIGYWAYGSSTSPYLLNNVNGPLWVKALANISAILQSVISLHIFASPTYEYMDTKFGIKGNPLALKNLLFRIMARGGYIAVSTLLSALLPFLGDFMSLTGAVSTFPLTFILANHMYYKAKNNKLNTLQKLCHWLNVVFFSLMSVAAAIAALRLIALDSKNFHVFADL

[2] = target: T2, ProT2 (Arabidopsis thaliana, UniProt P92962); assay: as above; format: cell-based; settings: uptake: 0.5 uM 3H-L-proline, labelled compound, pH 5.0, 30 min; currents: 5 mM L-proline, pH 5.0, -60 mV
T2 sequence (P92962 1-439): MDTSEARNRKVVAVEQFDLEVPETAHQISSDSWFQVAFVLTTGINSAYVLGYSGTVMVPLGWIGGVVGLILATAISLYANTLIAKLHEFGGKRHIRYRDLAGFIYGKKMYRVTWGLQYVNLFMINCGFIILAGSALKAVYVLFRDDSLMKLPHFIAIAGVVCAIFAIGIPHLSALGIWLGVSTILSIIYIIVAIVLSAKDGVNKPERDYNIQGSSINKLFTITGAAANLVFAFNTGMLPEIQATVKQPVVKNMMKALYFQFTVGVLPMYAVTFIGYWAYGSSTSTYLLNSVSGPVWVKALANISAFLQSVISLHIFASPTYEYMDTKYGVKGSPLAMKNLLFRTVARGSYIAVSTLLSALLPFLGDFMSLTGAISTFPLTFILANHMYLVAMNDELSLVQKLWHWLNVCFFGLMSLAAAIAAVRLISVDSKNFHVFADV

Structure (SMILES): O=C(O)[C@@H]1CCCN1 [L-proline]
- 3H-proline uptake and two-electrode voltage clamp, Xenopus laevis oocytes [1]: Oocytes expressing ProT2 or ProT3 can import ^3H-proline into the cells from external buffer
- 3H-proline uptake and two-electrode voltage clamp, Xenopus laevis oocytes [2]: Oocytes expressing ProT2 or ProT3 can import ^3H-proline into the cells from external buffer
